Literature values as cited in patent US20150209442A1, “METHOD TO IMPROVE PHARMACOKINETICS OF DRUGS” (The Board of Regents of the University of Texas System, priority 2012, published 2015).

Legend:
TRPV1 = conditions: spinal cord; completely reversible by a TRPV1 antagonist

| Compound | tactile allodynia (TRPV1) | bound to plasma proteins | free (unbound) share of total concentration in plasma (plasma) |
| --- | --- | --- | --- |
| 9-hydroxyoctadecadienoic acid [9-HODE] | results in tactile allodynia | – | – |
| CC(C(=O)O)c1ccc(-c2ccccc2)c(F)c1 (stereo not shown) [flurbiprofen] | – | > 99% | ~0.1% |
| COc1cc(CNC(=O)CCCC/C=C/C(C)C)ccc1O [capsaicin] | results in tactile allodynia | – | – |
